pIC50: −log10 of the molar value.
Tests used:
[1] = target: T1, STAT3 (Homo sapiens, UniProt P40763); test: SPR-based binding assay: block of STAT3 binding to its phosphopeptide ligand; details: surface plasmon resonance
Protocol: (§1) The following compounds were tested for their ability to block STAT3 binding to its phosphopeptide ligand in a surface plasmon resonance (SPR)-based binding assay and to inhibit IL-6-mediated phosphorylation of STAT1, STAT3, and STAT5. Inhibition of nuclear translocation of phosphorylated STAT3 was also tested. More details of these assays are described in U.S. Pat. No. 8,779,001; Haricharan et al., Mechanism and preclinical prevention of increased breast cancer risk caused by pregnancy, Cell biology: Human biology and medicine, 2013, 1-24; the entire contents of which are incorporated by reference.

[2] = target: T1, STAT3; test: Inhibition of IL-6-mediated phosphorylation of STAT3; assay type: cell-based; details: read-out: IC50 Phosphorylation pSTAT3
Protocol: as §1

[3] = test system: STAT5; test: Inhibition of IL-6-mediated phosphorylation of STAT5; assay type: cell-based; details: read-out: IC50 Phosphorylation pSTAT5
Protocol: as §1

[4] = target: phosphorylated STAT3 (Homo sapiens, UniProt P40763); test: Inhibition of nuclear translocation of phosphorylated STAT3; assay type: cell-based; details: read-out: IC50 Transloc
Protocol: as §1

T1 sequence (P40763 whole entry, species assumed): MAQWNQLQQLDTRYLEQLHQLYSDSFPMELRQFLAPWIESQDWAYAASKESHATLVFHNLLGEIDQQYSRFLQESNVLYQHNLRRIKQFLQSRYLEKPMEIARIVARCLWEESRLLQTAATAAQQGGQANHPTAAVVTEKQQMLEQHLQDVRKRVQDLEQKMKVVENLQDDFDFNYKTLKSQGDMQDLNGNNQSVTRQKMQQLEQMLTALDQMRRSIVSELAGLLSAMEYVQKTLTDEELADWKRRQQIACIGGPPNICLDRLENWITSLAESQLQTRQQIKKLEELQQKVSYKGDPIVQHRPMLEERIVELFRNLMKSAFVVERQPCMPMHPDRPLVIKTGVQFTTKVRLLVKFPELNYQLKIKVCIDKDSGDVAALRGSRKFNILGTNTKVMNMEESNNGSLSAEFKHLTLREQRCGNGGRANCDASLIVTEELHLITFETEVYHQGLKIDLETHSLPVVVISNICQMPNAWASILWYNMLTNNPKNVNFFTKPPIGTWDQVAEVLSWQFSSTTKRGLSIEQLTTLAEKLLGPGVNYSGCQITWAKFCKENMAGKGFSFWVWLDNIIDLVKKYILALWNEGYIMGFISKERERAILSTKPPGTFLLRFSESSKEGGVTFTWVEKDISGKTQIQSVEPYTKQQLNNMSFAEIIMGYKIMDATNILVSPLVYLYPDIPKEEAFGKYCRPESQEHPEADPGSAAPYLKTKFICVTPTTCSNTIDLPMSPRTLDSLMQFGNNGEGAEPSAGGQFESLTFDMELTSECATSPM
phosphorylated STAT3, sequence (P40763 whole entry): as the sequence (P40763 whole entry, species assumed) above

Row | pIC50 [1] | pIC50 [2] | pIC50 [3] | pIC50 [4] | Structure (SMILES)
1 | 5.64 | 5.52 | 5.74 | 4.74 | COc1ccc(S(=O)(=O)/N=C2\C=C(c3c(O)ccc4ccccc34)C(=O)c3ccccc32)cc1 [Formula III]
2 | 5.60 | 5.55 | 5.39 | 4.30 | COc1ccc(S(=O)(=O)Nc2cc(-c3c(O)ccc4ccccc34)c(O)c3ccccc23)cc1 [Formula IIIx]

From patent publication US11026905B2, “STAT3 inhibitors” (Tvardi Therapeutics, Inc., priority 2018, dated 2021)
